{"source": "patent US20150037351A1", "about": "“NOVEL THERAPEUTIC TARGET FOR THE PREVENTION OF TUMOUR METASTASIS” (MAX-PLANCK-GESELLSCHAFT ZUR FORDERUNG DER WISSENSCHAFTEN …, priority 2012, published 2015)", "key": {"[1]": {"test_system": "MS1 endothelial cell layer", "test": "endothelial barrier permeability assay (FITC-dextran)", "assay_type": "cell-based, mouse", "method": "(§1) The permeability assay was performed as described for the transwell assay with some modifications. Briefly, MS1 cells were cultured on transwell filters and the supernatant of platelets alone or platelets stimulated with tumour cells was mixed 1:1 with TB containing 2 mg/ml 70 kDa FITC-DX of which 50 μl were added to the upper compartment in the absence or presence of apyrase (20 U/ml). 250 μl TB were added to the lower compartment. After 90 min, the amount of passed FITC-DX to the lower compartment was measured (FlexStation3, Molecular Devices). For visualization of changes in the endothelial barrier, MS1 cells were stimulated for 1 h with supernatants from tumour cells alone or from tumour cells after stimulation with platelets in the absence or presence of apyrase (20 U/ml). Cells were further processed for staining and imaging"}, "MS1 endothelial cells": {"test_system": "MS1 endothelial cells", "test": "morphology of the endothelial monolayer (VE-cadherin/F-actin staining, discontinuous cellular junctions)", "assay_type": "cell-based, mouse", "method": "as §1\nCells or tissues were fixed with 4% para-formaldehyde. Tissues were further cryopreserved in 30% sucrose (Sigma), embedded in OCT (Fisher Scientific), and cryosectioned at 16 μm. Cells or sections were stained with rat anti-VE-Cadherin (BD Pharmingen) and Alexa Fluor (AF) 594- (Molecular Probes) or Cy5- (Dianova) conjugated secondary antibodies. DAPI (Sigma) was used to stain cell nuclei, and AF488-conjugated phalloidin (Molecular Probes) to stain F-actin. Images were acquired using a Leica SP5 confocal microscope and analyzed using ImageJ (NIH)."}, "B16 cells": {"test_system": "B16 cells", "test": "transwell assay: tumour cell transmigration through an endothelial cell layer", "assay_type": "cell-based, mouse", "method": "MS1 cells (8×10^3 at seeding in 50 μl) or HUVEC (6×10^3 at seeding in 50 μl) were cultured for 2 days on 96-transwell plates with polyester membranes of 8-μm pore size (Corning) with medium changes every day. For knockdown experiments, 4×10^5 MS1 cells were transfected using Amaxa Nucleofector Kit V with different sets of siRNA against the P2Y2 receptor (Qiagen) and 1.2×10^4 cells in 50 μl were seeded to the up-per compartment. Where indicated, MS1 cells were pre-incubated with 5-BDBD (1 μM) or MRS2500 (100 nM) for 30 min. Before the experiment, exemplary wells of each condition were visually checked by calcein-AM staining of the endothelial monolayer and only plates with 100% confluency were used. For transmigration, the medium from the upper compartment was removed and 50 μl of a 1:1 mixture of platelets (2×10^8/ml) with calcein-AM-labeled tumour cells (8×10^5/ml) in TB was added to the upper compartment alone or with flurbiprofen (100 nM), ketanserin (3 nM) or apyrase (20 […] (10 μM) and 2MeSADP (10 μM) were added in the absence of platelets. For supernatant experiments, human platelets (5×10^7/ml) or mouse platelets (2×10^8/ml) were incubated for 30 min at 37° C. alone or with tumour cells (1.6×10^6/ml) and centrifuged at 350×g for 10 min. The supernatant was mixed 1:1 with TB (for MS1 cells) or cell culture medium (for HUVECs) containing calcein-AM-labeled tumour cells (8×10^5/ml) and 50 μl were added to the upper compartment. In all experiments, 250 μl TB or culture medium were added to the lower compartment, and tumour cells were allowed to transmigrate over night. On the next day, the non-transmigrated tumour cells from the upper compartment were removed and only the transmigrated tumour cells on the lower side of the filter or the bottom of the transwell were imaged (Zeiss Axio Observer.Z1 and Olympus IX81) and quantified with ImageJ (NIH). Each experiment was performed at least 3 times with a minimum of 5 wells per experiment."}, "P2Y2 receptors [2]": {"target": "T1, P2Y2 receptors (Homo sapiens, UniProt P41231)", "T1 sequence (P41231 whole entry)": "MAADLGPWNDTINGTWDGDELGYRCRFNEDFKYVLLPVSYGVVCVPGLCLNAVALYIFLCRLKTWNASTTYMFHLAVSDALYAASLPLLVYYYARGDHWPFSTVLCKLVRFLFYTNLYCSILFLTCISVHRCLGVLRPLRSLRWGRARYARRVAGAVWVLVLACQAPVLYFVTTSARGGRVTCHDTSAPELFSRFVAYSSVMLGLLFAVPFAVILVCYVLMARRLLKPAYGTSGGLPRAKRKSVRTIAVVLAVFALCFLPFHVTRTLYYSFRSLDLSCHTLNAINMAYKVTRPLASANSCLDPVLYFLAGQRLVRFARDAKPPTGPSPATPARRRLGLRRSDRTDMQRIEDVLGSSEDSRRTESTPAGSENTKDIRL", "settings": "natural ligands of the human P2Y2 receptor; cited from earlier work"}, "P2Y2 receptors [3]": {"target": "T1, P2Y2 receptors", "settings": "cited from earlier work"}, "[4]": {"settings": "B16 cells on MS1 endothelial cells with platelets, flurbiprofen 100 nM, ketanserin 3 nM, apyrase 20 U/ml"}}, "data": [{"compound": "Nc1ncnc2c1ncn2[C@@H]1O[C@H](COP(=O)(O)OP(=O)(O)OP(=O)(O)O)[C@@H](O)[C@H]1O", "note": "[ATP]", "values": [{"measurement": "endothelial permeability", "setting": "[1]; ATP 10 μM, MS1 monolayer, FITC-dextran", "value": "increase"}, {"measurement": "tight interendothelial junctions", "setting": "MS1 endothelial cells; ATP 10 μM, 30 min, MS1 cells", "value": "loss"}]}, {"compound": "O=C(c1ccc(F)cc1)C1CCN(CCn2c(=O)[nH]c3ccccc3c2=O)CC1", "note": "[ketanserin]", "values": [{"measurement": "platelet-dependent facilitation of tumour cell transmigration", "setting": "B16 cells; [4]", "value": "no effect"}]}, {"compound": "apyrase", "values": [{"measurement": "platelet-dependent facilitation of tumour cell transmigration", "setting": "B16 cells; [4]", "value": "ablated"}, {"measurement": "diffusion of FITC-labeled dextran over an endothelial cell layer enhanced by platelets with tumour cells", "setting": "[1]; apyrase 20 U/ml, 90 min", "value": "blocked"}, {"measurement": "loss of tight interactions of endothelial cells in the monolayer induced by platelets with tumour cells", "setting": "MS1 endothelial cells; apyrase 20 U/ml, 1 h", "value": "blocked"}]}, {"compound": "CC(C(=O)O)c1ccc(-c2ccccc2)c(F)c1", "note": "(stereo not shown) [flurbiprofen]", "values": [{"measurement": "platelet-dependent facilitation of tumour cell transmigration", "setting": "B16 cells; 0.1 µM", "value": "no effect"}]}, {"compound": "Nc1ncnc2c1ncn2[C@@H]1O[C@H](COP(=O)(O)OP(=O)(O)O)[C@@H](O)[C@H]1O", "note": "[ADP]", "values": [{"measurement": "EC50", "setting": "P2Y2 receptors [2]", "value": "considerably lower potency"}, {"measurement": "agonist efficacy at P2Y2 receptors in comparison to ATP", "setting": "P2Y2 receptors [3]", "value": "less effective agonist"}]}, {"compound": "O=c1ccn([C@@H]2O[C@H](COP(=O)(O)OP(=O)(O)OP(=O)(O)O)[C@@H](O)[C@H]2O)c(=O)[nH]1", "note": "[UTP]", "values": [{"measurement": "agonist efficacy at P2Y2 receptors in comparison to ATP", "setting": "P2Y2 receptors [3]", "value": "full agonist"}]}]}
